For test [1], the system named is symmetric dimethylation of arginine (SDMA) of PRMT5 substrates in MCF-7 cells. The test is described as follows: PRMT5 Cell Target Engagement (TE) Assay. In kind it is cell-based. The conditions noted are these: treated for 3 days, nuclear SDMA by high content imaging, top concentration 10000 nM. An excerpt:
The PRMT5 TE assay is a biomarker assay for identifying compounds that inhibit symmetric dimethylation of arginine (SDMA) of PRMT5 substrates. The following substrates have been reported for PRMT5: histone H2A and H4 R3, Histone H3 R2, Histone H3 R8, spliceosome Sm proteins, ribosomal protein RPS10, p53, FEN1, nudeoplasmin, nucleolin, EGFR and EBNA. The assay will focus on detecting symmetrically dimethylated nuclear proteins using high content imaging technology. Detection of the expression of symmetrically dimethylated nuclear proteins is through a mixture of primary rabbit monoclonal antibodies to SDMA (CST 13222), which in turn recognized by an Alexafluor 488 dye-conjugated anti-rabbit IgG secondary antibody. The IN Cell Analyzer 2200 or Opera-Phenix measures nuclear Alexafluor 488 fluorescent dye intensity that is directly related to the level of expression of symmetrically dimethylated nuclear proteins at the single cell level. Nuclear AF488 dye intensities are compared to the mean value for DMSO treated cells (MIN) to report percent of inhibition for each compound-treated well.
In this assay, the cell potency (EC50) of each compound was determined from a ten point (1:3 serial dilution; top compound concentration of 10000 nM) titration curve using the following outlined procedure. Each well of a BD falcon collagen coated black/clear bottom 384-well plate was seeded with 4000 MCF-7 cells in 30 μl media and allowed to attach for 5 h. Media is ATCC-formulated Eagle's Minimum Essential Medium, Catalog No. 30-2003. To make the complete growth medium, the following components were added to the base medium: 0.01 mg/ml human recombinant insulin; fetal bovine serum to a final concentration of 10%. Additional 30 μl of media containing 2× compounds were added to each well. Cells were treated for 3 days in 37° C. CO2 incubator. On day 3, cells were fixed with Cytofix, permeablized with 0.4% Triton-X-100/Cytofix, and washed with D-PBS without Ca/Mg. Cells were blocked with Licor Odessey blocking reagent for 1 h at room temperature, followed by incubation with anti-SDMA (1:1000) antibody at 4° C. overnight. 1° antibody was removed, followed by three washings with DPBS without Ca/Mg and 0.05% Tween20. Hoechst (5 μg/ml), Cell Mask deep stain (1:2000) and Alexa488-conjugated goat anti-rabbit IgG (2 μg/mL) was added for 1 hour at room temperature. A final washing step (three washes) was performed before sealing plate for imaging on In Cell Analyzer 2200 or Opera-Phenix. Images from analyzer were uploaded to Columbus (at WP or BOS) for image analysis. IC50 values were determined by 4 parameters robust fit of percent fluorescence units vs. (Logic) compound concentrations.

Test [2] has as its target T1, PRMT5-MEP50 enzyme complex (Homo sapiens, UniProt O14744).
T1 construct: 1.25 nM of Full-length (FL)-PRMT5-MEP50 enzyme complex; made in house; host or cells: baculovirus-transfected Sf21 cells
In words: PRMT5-MEP50 Enzyme Methylation Assay. It counts as biochemical. The method, then:
PRMT5-MEP50 biochemical assay is a direct measurement of the methylation activity of the enzyme complex on a short peptide substrate derived from the N-terminus of H4 histone. Methylation experiment is performed with recombinant PRMT5-MEP50 protein complex. The assessment of inhibitory effect of small molecules is measured by tire effectiveness of the compounds to inhibit tins reaction (EC50).
In this assay, the potency (EC50) of each compound was determined from a twenty-point (1:2 serial dilution; top compound concentration of 100000 nM) titration curve using the following outlined procedure. To each well of a white ProxiPlus 384 well-plate, 100 nL of compound (1% DMSO in final assay volume of 10 μL) was dispensed, followed by the addition of 8 μL of 1× assay buffer (50 mM Bicine pH 8.0, 1 mM DTT, 0.004% Tween20, 0.01% BSA) containing 1.25 nM of Full-length (FL)-PRMT5-MEP50 enzyme complex (recombinant proteins from baculovirus-transfected Sf21 cells: FL-PRMT5; MW=[…] and FL-MEP50; MW=38614) and 1 μL of 150 μM S-(5′-Adenosyl)-L-Methionine Chloride (SAM). Plates were sealed and placed in a 37° C. humidified chamber for a 60 minutes pre-incubation with compound. Subsequently, each reaction was initiated by the addition of 1 μL 1× assay buffer containing 750 nM biotinylated H4R3(Mel) peptide. The final reaction in each well of 10 μL consists of 1.0 nM PRMT5-MEP50, 75 nM biotinylated-peptide, and […] SAM. Methylation reactions were allowed to proceed for 150 minutes in a sealed plate at 37° C. Reactions were immediately quenched by the addition of 1 μL of 5% formic acid. Plates were then frozen and shipped to SAMDITM Tech Inc. to determine the percent conversion from H4R3(Mel) to H4R3(Me2). Dose-response curves were generated by plotting percent effect (% product conversion; Y-axis) vs. Log 10 compound concentrations (X-axis). EC50 values were determined by non-linear regression according to models for either sigmoidal (4 parameters) or biphasic (7 parameters) dose-response curves.

The mark [3] stands for this setting: single EC50 from 4 parameters single site sigmoidal model, or first EC50 of 7 parameters biphasic model, 1.0 nM PRMT5-MEP50, H4R3(Me1) peptide, SAM, read-out: Enzyme Methylation Assay (EC50 or EC50_1).
Setting [4] is: second EC50 of 7 parameters biphasic model, read-out: Enzyme Methylation Assay (EC50_2).

Structures can show the parent of a compound that is named as a salt. Where two headings read alike, the source gives them in different places. A value given as a limit tells only on which side of the number the result lay.

T1 sequence (O14744 whole entry): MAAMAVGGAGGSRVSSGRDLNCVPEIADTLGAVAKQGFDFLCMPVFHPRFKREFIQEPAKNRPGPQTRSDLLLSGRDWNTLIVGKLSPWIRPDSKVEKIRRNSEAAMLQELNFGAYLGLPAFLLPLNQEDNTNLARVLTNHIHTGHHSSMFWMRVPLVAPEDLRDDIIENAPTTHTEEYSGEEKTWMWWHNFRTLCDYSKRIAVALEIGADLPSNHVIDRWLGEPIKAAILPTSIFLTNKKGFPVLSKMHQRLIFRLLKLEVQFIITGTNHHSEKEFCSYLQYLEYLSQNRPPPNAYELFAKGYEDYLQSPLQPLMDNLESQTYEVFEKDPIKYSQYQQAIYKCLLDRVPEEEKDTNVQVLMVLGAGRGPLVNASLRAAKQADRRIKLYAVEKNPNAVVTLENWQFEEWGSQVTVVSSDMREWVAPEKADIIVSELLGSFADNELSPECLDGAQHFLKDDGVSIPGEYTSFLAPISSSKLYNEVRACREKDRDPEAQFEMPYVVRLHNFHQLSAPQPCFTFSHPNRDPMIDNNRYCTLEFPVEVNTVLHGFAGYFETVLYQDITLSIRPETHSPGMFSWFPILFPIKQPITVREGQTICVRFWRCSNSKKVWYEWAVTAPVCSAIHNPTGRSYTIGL
T1 sequence (Q9BQA1 whole entry partner): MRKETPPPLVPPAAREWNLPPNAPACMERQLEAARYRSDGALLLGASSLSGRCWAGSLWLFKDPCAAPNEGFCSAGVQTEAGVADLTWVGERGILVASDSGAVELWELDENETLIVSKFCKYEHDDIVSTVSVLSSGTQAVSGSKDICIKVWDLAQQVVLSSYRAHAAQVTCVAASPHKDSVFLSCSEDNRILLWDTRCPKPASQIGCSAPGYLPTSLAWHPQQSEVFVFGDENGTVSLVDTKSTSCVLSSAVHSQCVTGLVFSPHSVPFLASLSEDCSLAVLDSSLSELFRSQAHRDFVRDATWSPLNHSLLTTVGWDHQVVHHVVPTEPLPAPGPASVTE

As for `Nc1nc2cc(CC[C@H]3S[C@@H](n4ccc5c(N)ncnc54)[C@H](O)[C@@H]3O)ccc2cc1Br` [Example 12, (2R,3S,4R,5R)-2-(2-(2amino-3bromoquinolin-7-yl)ethyl)-5-(4-amino-7H-pyrrolo[2,3-d]pyrimidin-7-yl)tetrahydrothiophene-3,4-diol], the EC50 in test [1] (Homo sapiens, MCF7, 72 h) amounted to 1.3 nM; in test [2] (setting [3]) it was 0.7 nM.

`Nc1nc2cc(CC[C@@H]3S[C@@H](n4ccc5c(N)ncnc54)[C@H](O)[C@@H]3O)ccc2cc1Br` [Example 13, (2S,3S,4R,5R)-2-(2-(2-amino-3-bromoquinolin-7-yl)ethyl)-5-(4-amino-7H-pyrrolo[2,3-d]pyrimidin-7-yl)tetrahydrothiophene-3,4-diol]: the EC50 in test [1] (Homo sapiens, MCF7, 72 h) turned out to be 3.2 nM; in test [2] (setting [3]), 0.3 nM.

As to `Nc1ccc2ccc(CC[C@H]3S[C@@H](n4ccc5c(N)ncnc54)[C@H](O)[C@@H]3O)cc2n1` [Example 14, (2R,3R,4S,5R)-2-(4-amino-7H-pyrrolo[2,3-d]pyrimidin-7-yl)-5-(2-(2-aminoquinolin-7-yl)ethyl)tetrahydrothiophene-3,4-diol TFA salt], the EC50 in test [1] (Homo sapiens, MCF7, 72 h) came out at 0.7 nM; in test [2] (setting [3]), 0.3 nM.

As to `Nc1ccc2ccc(CC[C@@H]3S[C@@H](n4ccc5c(N)ncnc54)[C@H](O)[C@@H]3O)cc2n1` [Example 15, (2R,3R,4S,5S)-2-(4-amino-7H-pyrrolo[2,3-d]pyrimidin-7-yl)-5-(2-(2-aminoquinolin-7-yl)ethyl)tetrahydrothiophene-3,4-diol], the EC50 in test [1] (Homo sapiens, MCF7, 72 h) was 1.4 nM; in test [2] (setting [3]), 0.9 nM.

As to `Cc1ncnc2c1ccn2[C@@H]1S[C@@H](CCc2ccc3ccc(N)nc3c2)[C@@H](O)[C@H]1O` [Example 16, (2S,3S,4R,5R)-2-[2-(2-aminoquinolin-7-yl)ethyl]-5-(4-methyl-7H-pyrrolo[2,3-d]pyrimidin-7-yl)tetrahydrothiophene-3,4-diol], the EC50 in test [1] (Homo sapiens, MCF7, 72 h) was 1.6 nM; in test [2] (setting [3]), 1.7 nM.

With `Cc1ncnc2c1ccn2[C@@H]1S[C@H](CCc2ccc3ccc(N)nc3c2)[C@@H](O)[C@H]1O` [Example 17], the EC50 came to 0.6 nM in test [1] (Homo sapiens, MCF7, 72 h) and 0.4 nM in test [2] (setting [3]).

As for `Cc1ncnc2c1ccn2[C@@H]1S[C@H](CCc2ccc3cc(Br)c(N)nc3c2)[C@@H](O)[C@H]1O` [Example 18, (2R,3S,4R,5R)-2-(2-(2-amino-3-bromoquinolin-7-yl)ethyl)-5-(4-methyl-7H-pyrrolo[2,3-d]pyrimidin-7-yl)tetrahydrothiophene-3,4-diol], the EC50 was determined as 5 nM in test [1] (Homo sapiens, MCF7, 72 h) and 2.2 nM in test [2] (setting [3]).

Take `Cc1ncnc2c1ccn2[C@@H]1S[C@@H](CCc2ccc3cc(Br)c(N)nc3c2)[C@@H](O)[C@H]1O` [Example 19]: the EC50 turned out to be 8.4 nM in test [1] (Homo sapiens, MCF7, 72 h); 50.1 nM in test [2] (setting [4]); 0.4 nM in test [2] (setting [3]).

`Cc1ncnc2c1ccn2[C@@H]1S[C@H](CCc2ccc3cc(C(F)(F)F)c(N)nc3c2)[C@@H](O)[C@H]1O` [Example 20, (2R,3S,4R,5R)-2-{2-[2-amino-3-(triflnoromethyl)quinolin-7-yl]ethyl}-5-(4-methyl-7H-pyrrolo[2,3-d]pyrimidin-7-yl)tetrahydrothionhene-3,4-diol]: the EC50 was found to be 741 nM in test [1] (Homo sapiens, MCF7, 72 h); 120 nM in test [2] (setting [4]); 0.7 nM in test [2] (setting [3]).

Consider `Cc1ncnc2c1ccn2[C@@H]1S[C@@H](CCc2ccc3cc(C(F)(F)F)c(N)nc3c2)[C@@H](O)[C@H]1O` [Example 21, (2S,3S,4R,5R)-2-{2-[2-amino-3-(trifluoromethyl)quinolin-7-yl]ethyl}-5-(4-methyl-7H-pyrrolo[2,3-d]pyrmidin-7-yl)tetrahydrothiophene-3,4-diol], for which the EC50 was at least 10000 nM in test [1] (Homo sapiens, MCF7, 72 h) and 7.4 nM in test [2] (setting [3]).

On to `Cc1ncnc2c1ccn2[C@@H]1S[C@H](CCc2ccc3cc(F)c(N)nc3c2)[C@@H](O)[C@H]1O` [Example 22, (2R,3S,4R,5R)-2-[2-(2-amino-3-fluoroquinolin-7-yl)ethyl]-5-(4-methyl-7H-pyrrolo[2,3-d]pyrimidin-7-yl)tetrahydrodrothiophene-3,4-diol], for which the EC50 in test [1] (Homo sapiens, MCF7, 72 h) was 5.9 nM; in test [2] (setting [3]), 10.1 nM.

Regarding `Cc1ncnc2c1ccn2[C@@H]1S[C@@H](CCc2ccc3cc(F)c(N)nc3c2)[C@@H](O)[C@H]1O` [Example 23, (2S,3S,4R,5R)-2-[2-(2-amino-3-fluoroquinolin-7-yl)ethyl]-5-(4-methyl-7H-pyrrolo[2,3-d]pyrimidin-7-yl)tetrahydrothiophene-3,4-diol], the EC50 in test [1] (Homo sapiens, MCF7, 72 h) is 41.9 nM; in test [2] (setting [3]), 58.3 nM.

As for `Cc1ncnc2c1ccn2[C@@H]1S[C@H](CCc2ccc3cc(Cl)c(N)nc3c2)[C@@H](O)[C@H]1O` [Example 24], the EC50 in test [1] (Homo sapiens, MCF7, 72 h) is 17.4 nM; in test [2] (setting [3]) it was 1.5 nM.

In the case of `Cc1ncnc2c1ccn2[C@@H]1S[C@@H](CCc2ccc3cc(Cl)c(N)nc3c2)[C@@H](O)[C@H]1O` [Example 25, (2S,3S,4R,5R)-2-[2-(2-amino-3-chloroquinolin-7-yl)ethyl]-5-(4-methy1-7H-pyrrolo[2,3-d]pyrimidin-7-yl)tetrahydrothiophene-3,4-diol], the EC50 in test [1] (Homo sapiens, MCF7, 72 h) came to 8.4 nM; in test [2] (setting [3]) it was 1.3 nM.

Consider `Cc1ncnc2c1ccn2[C@@H]1S[C@H](CCc2ccc3ccc(NCC(F)F)nc3c2)[C@@H](O)[C@H]1O` [Example 26, (2R,3S,4R,5R)-2-(2-{2-[(2,2-difluoroethyl)amino]quinolin-7-yl}ethyl)-5-(4-methyl-7H-pyrrolo[2,3-d]pyrimidin-7-yl)tetrahydrothiophene-3,4-diol], for which the EC50 was 10.5 nM in test [1] and 59.6 nM in test [2] (setting [3]).

For `C[C@]1(CCc2ccc3cc(Br)c(N)nc3c2)S[C@@H](n2ccc3c(N)ncnc32)[C@H](O)[C@@H]1O` [Example 30], the EC50 was 0.5 nM in test [1] (Homo sapiens, MCF7, 72 h) and 0.3 nM in test [2] (setting [3]).

Regarding `C[C@]1(CCc2ccc3cc(Br)c(N)nc3c2)S[C@@H](n2ccc3c(Cl)ncnc32)[C@H](O)[C@@H]1O` [Example 31, (2R,3S,4R,5R)-2-(2-(2-amino-3-bromoquinolin-7-yl)ethyl)-5-(4-chloro-7H-pyrrolo[2,3-d]pyrimidin-7-yl)-2-methyltetrahydrothiophene-3,4-diol], the EC50 in test [1] (Homo sapiens, MCF7, 72 h) was found to be 53.4 nM; in test [2] (setting [3]), 0.7 nM.

With `Cc1ncnc2c1ccn2[C@@H]1S[C@](C)(CCc2ccc3cc(Br)c(N)nc3c2)[C@@H](O)[C@H]1O` [Example 32], the EC50 was found to be 5.6 nM in test [1] (Homo sapiens, MCF7, 72 h) and 0.6 nM in test [2] (setting [3]).

Source of the values: US20210277009A1, “PRMT5 INHIBITORS” (Merck Sharp & Dohme Corp., priority 2018, published 2021).
